In patent US11034650B2, “Compounds useful for treating a Mannheimia haemolytica or Histophilus somni infection” (Intervet Inc., priority 2016, dated 2021):
≈ marks a conversion by molar mass, not a printed value.

How the values were obtained:
Type in all cases: cell-based
[1] = test system: Mannheimia haemolytica MH 6357 (M7/2, reference strain, cattle infection strain); experiment: MIC, broth-microdilution (CLSI VET01-A4), strain MH 6357; details: Mannheimia haemolytica strain MH 6357, broth-microdilution; unit assumed
Outline: (§1)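 Read-out is unaided visual inspection for turbidity. The minimum inhibitory concentration is the lowest tested level without detectable growth across a two-fold compound series.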

[2] = test system: Mannheimia haemolytica MH 6374 (ATCC 33396, reference strain); experiment: MIC, broth-microdilution (CLSI VET01-A4), strain MH 6374; details: Mannheimia haemolytica strain MH 6374, broth-microdilution; unit assumed
Outline: as §1

[3] = test system: Mannheimia haemolytica MH 10720 (154, BRD field isolate); experiment: MIC, broth-microdilution (CLSI VET01-A4), strain MH 10720; details: Mannheimia haemolytica strain MH 10720, broth-microdilution; unit assumed
Outline: as §1

[4] = test system: Mannheimia haemolytica MH 12587 (1071, BRD field isolate, macrolide-resistance: erm+, E+); experiment: MIC, broth-microdilution (CLSI VET01-A4), strain MH 12587; details: Mannheimia haemolytica strain MH 12587, broth-microdilution; unit assumed
Outline: as §1

[5] = test system: Mannheimia haemolytica MH 13065 (XB0446-6003.9, BRD field isolate); experiment: MIC, broth-microdilution (CLSI VET01-A4), strain MH 13065; details: Mannheimia haemolytica strain MH 13065, broth-microdilution; unit assumed
Outline: as §1

[6] = test system: Mannheimia haemolytica MH 13093 (XB0472-6014.1, BRD field isolate); experiment: MIC, broth-microdilution (CLSI VET01-A4), strain MH 13093; details: Mannheimia haemolytica strain MH 13093, broth-microdilution; unit assumed
Outline: as §1

[7] = test system: Pasteurella multocida PM 6267 (P 2225 (L386), reference strain, mouse infection strain); experiment: MIC, broth-microdilution (CLSI VET01-A4), strain PM 6267; details: Pasteurella multocida strain PM 6267, broth-microdilution; unit assumed
Outline: as §1

[8] = test system: Pasteurella multocida PM 6391 (ATCC 43137, reference strain); experiment: MIC, broth-microdilution (CLSI VET01-A4), strain PM 6391; details: Pasteurella multocida strain PM 6391, broth-microdilution; unit assumed
Outline: as §1

[9] = test system: Pasteurella multocida PM 10775 (080130003051, BRD field isolate); experiment: MIC, broth-microdilution (CLSI VET01-A4), strain PM 10775; details: Pasteurella multocida strain PM 10775, broth-microdilution; unit assumed
Outline: as §1

[10] = test system: Pasteurella multocida PM 12080 (IV102277-0093, BRD field isolate); experiment: MIC, broth-microdilution (CLSI VET01-A4), strain PM 12080; details: Pasteurella multocida strain PM 12080, broth-microdilution; unit assumed
Outline: as §1

Row | Compound | MIC MH 6357 [1] | MIC MH 6374 [2] | MIC MH 10720 [3] | MIC MH 12587 [4] | MIC MH 13065 [5] | MIC MH 13093 [6] | MIC PM 6267 [7] | MIC PM 6391 [8] | MIC PM 10775 [9] | MIC PM 12080 [10]
1 | CON=C(C)[C@H](NC(=O)c1ccc(C#Cc2ccc(CNCc3ccco3)cc2)cc1)C(=O)NO [Compound 391] | 0.4 µg/mL (≈ 0.843 µM) | 0.4 µg/mL (≈ 0.843 µM) | 0.4 µg/mL (≈ 0.843 µM) | ≤ 0.1 µg/mL | 0.4 µg/mL (≈ 0.843 µM) | 0.4 µg/mL (≈ 0.843 µM) | 1.6 µg/mL (≈ 3.37 µM) | ≤ 0.1 µg/mL | 0.4 µg/mL (≈ 0.843 µM) | ≤ 0.1 µg/mL
2 | CC(C)([C@H](NC(=O)c1ccc(C#Cc2ccc(CNCc3cccnc3)s2)cc1)C(=O)NO)S(C)(=O)=O [C.319] | 0.2 µg/mL (≈ 0.37 µM) | 0.2 µg/mL (≈ 0.37 µM) | ≤ 0.1 µg/mL | 0.8 µg/mL (≈ 1.48 µM) | 0.4 µg/mL (≈ 0.74 µM) | 0.4 µg/mL (≈ 0.74 µM) | 0.2 µg/mL (≈ 0.37 µM) | ≤ 0.1 µg/mL | ≤ 0.1 µg/mL | ≤ 0.1 µg/mL
3 | COc1ccc(CNCc2ccc(C#Cc3ccc(C(=O)N[C@H](C(=O)NO)C(C)(C)S(C)(=O)=O)cc3)cc2)cc1 [Compound 260] | 1.6 µg/mL (≈ 2.84 µM) | 0.4 µg/mL (≈ 0.71 µM) | ≤ 0.1 µg/mL | 1.6 µg/mL (≈ 2.84 µM) | 0.4 µg/mL (≈ 0.71 µM) | 0.8 µg/mL (≈ 1.42 µM) | ≤ 0.1 µg/mL | ≤ 0.1 µg/mL | ≤ 0.1 µg/mL | ≤ 0.1 µg/mL
4 | CC(C)(C(NC(=O)c1ccc(C#Cc2ccc(CNCc3ccccn3)cc2)cc1)C(=O)NO)[N+](=O)[O-] (centres unmarked) [Compound 282] | 0.8 µg/mL (≈ 1.6 µM) | 0.8 µg/mL (≈ 1.6 µM) | ≤ 0.1 µg/mL | 1.6 µg/mL (≈ 3.19 µM) | 0.4 µg/mL (≈ 0.798 µM) | 1.6 µg/mL (≈ 3.19 µM) | 0.8 µg/mL (≈ 1.6 µM) | 0.4 µg/mL (≈ 0.798 µM) | 0.4 µg/mL (≈ 0.798 µM) | 0.2 µg/mL (≈ 0.399 µM)
5 | COc1ccc(CNCc2ccc(C#Cc3ccc(C(=O)N[C@H](C(=O)NO)C(C)(C)O)cc3)cn2)cc1 [Compound 328] | 0.8 µg/mL (≈ 1.59 µM) | 0.8 µg/mL (≈ 1.59 µM) | ≤ 0.1 µg/mL | 1.6 µg/mL (≈ 3.18 µM) | 0.8 µg/mL (≈ 1.59 µM) | 0.8 µg/mL (≈ 1.59 µM) | 0.8 µg/mL (≈ 1.59 µM) | ≤ 0.1 µg/mL | ≤ 0.1 µg/mL | ≤ 0.1 µg/mL
6 | COCCN(C)Cc1ccc(C#Cc2ccc(C(=O)N[C@@H](CO)C(=O)NO)cc2)cc1 [Compound 154] | 3.1 µg/mL (≈ 7.29 µM) | 12.5 µg/mL (≈ 29.4 µM) | 1.6 µg/mL (≈ 3.76 µM) | 12.5 µg/mL (≈ 29.4 µM) | 6.3 µg/mL (≈ 14.8 µM) | 6.3 µg/mL (≈ 14.8 µM) | 0.2 µg/mL (≈ 0.47 µM) | 1.6 µg/mL (≈ 3.76 µM) | ≤ 0.1 µg/mL | 0.8 µg/mL (≈ 1.88 µM)
7 | CSC(C)(C)[C@H](NC(=O)c1ccc(C#Cc2ccc(CNC3CCC3)cc2)cc1)C(=O)NO [Compound 243] | 3.1 µg/mL (≈ 6.66 µM) | 3.1 µg/mL (≈ 6.66 µM) | 0.4 µg/mL (≈ 0.859 µM) | 3.1 µg/mL (≈ 6.66 µM) | 1.6 µg/mL (≈ 3.44 µM) | 1.6 µg/mL (≈ 3.44 µM) | 0.2 µg/mL (≈ 0.43 µM) | 0.8 µg/mL (≈ 1.72 µM) | ≤ 0.1 µg/mL | 0.4 µg/mL (≈ 0.859 µM)
8 | CC[C@H](C)[C@H](NC(=O)c1ccc(C#Cc2ccc(CN3CCCOCC3)cc2)cc1)C(=O)NO [Compound 186] | 1.6 µg/mL (≈ 3.45 µM) | 6.3 µg/mL (≈ 13.6 µM) | 1.6 µg/mL (≈ 3.45 µM) | 6.3 µg/mL (≈ 13.6 µM) | 3.1 µg/mL (≈ 6.69 µM) | 3.1 µg/mL (≈ 6.69 µM) | ≤ 0.1 µg/mL | 0.4 µg/mL (≈ 0.863 µM) | ≤ 0.1 µg/mL | 0.2 µg/mL (≈ 0.431 µM)
9 | CC(C)([C@H](NC(=O)c1ccc(C#Cc2ccc(CNCc3ccccc3)cc2)cc1)C(=O)NO)S(C)(=O)=O [C.259] | 0.8 µg/mL (≈ 1.5 µM) | 0.4 µg/mL (≈ 0.75 µM) | ≤ 0.1 µg/mL | 0.8 µg/mL (≈ 1.5 µM) | 0.4 µg/mL (≈ 0.75 µM) | 0.8 µg/mL (≈ 1.5 µM) | ≤ 0.1 µg/mL | ≤ 0.1 µg/mL | ≤ 0.1 µg/mL | ≤ 0.1 µg/mL
10 | CC(C)([C@H](NC(=O)c1ccc(C#Cc2ccc(CNCc3nccs3)s2)cc1)C(=O)NO)S(C)(=O)=O [Compound 369] | 0.4 µg/mL (≈ 0.732 µM) | 0.2 µg/mL (≈ 0.366 µM) | ≤ 0.1 µg/mL | 0.4 µg/mL (≈ 0.732 µM) | 0.4 µg/mL (≈ 0.732 µM) | 0.4 µg/mL (≈ 0.732 µM) | ≤ 0.1 µg/mL | ≤ 0.1 µg/mL | ≤ 0.1 µg/mL | ≤ 0.1 µg/mL
11 | O=C(N[C@@H](CO)C(=O)NO)c1ccc(C#Cc2ccc(CNCc3ccccn3)cc2)cc1 [Compound 158] | 1.6 µg/mL (≈ 3.6 µM) | 3.1 µg/mL (≈ 6.97 µM) | 0.8 µg/mL (≈ 1.8 µM) | 6.3 µg/mL (≈ 14.2 µM) | 6.3 µg/mL (≈ 14.2 µM) | 6.3 µg/mL (≈ 14.2 µM) | 0.4 µg/mL (≈ 0.9 µM) | 0.8 µg/mL (≈ 1.8 µM) | ≤ 0.1 µg/mL | 0.8 µg/mL (≈ 1.8 µM)
